These results are taken from patent US9045426B2, “Method for producing 1,2-dihydropyridine-2-one compound” (EISAI R&D MANAGEMENT CO., LTD., priority 2004, dated 2015).

Data set [1] in a line: Physical stability in mixing operation in the presence of water or water-ethanol (1:1) mixed solution. Format: physicochemical. To be noted: room temperature, then dried at about 60° C. On the procedure:
Physical Stability in Mixing-Operation in the Presence of Water or Water-Ethanol (1:1) Mixed Solution
About 150 mg of respective crystals are placed in an agate mortar, and the mixing operation is carried out at room temperature for a few minutes while the dropwise addition of water (or water-ethanol (1:1) mixed solution) continues.
Subsequently, respective crystals are dried at about 60° C. for 2 to 3 hours.

Data set [2] is described as follows: Lower explosion concentration limit (blown-up type dust explosion test). The data set is classed as physicochemical. As to conditions: 24° C., humidity 49%, ignition discharge energy 10 J. An excerpt: (§1) Minimum Ignition Energy and Lower Explosion Concentration Limit
(§2) An appropriate amount of Hydrate crystal corresponding to a concentration was uniformly put on sample dish of blown-up type dust explosion test apparatus. 50 kPa of air was compressed in a 1.3 L pressure tank, and the air was introduced into a glass cylinder by opening of a solenoid operated valve to form dust clouds. A discharge electrode was supplied with energy after 0.1 seconds after the opening of the solenoid operated valve. The criterion of ignition is an arrival of flame at an ignition mark set 100 mm above the discharge electrode.
(2) Measurement Conditions for Lower Explosion Concentration Limit
(§3) Temperature of the measurement room: 24° C.
(§4) Popping pressure of compressed air: 50 kPa
(§5) Ignition start time: 0.1 sec
Repetition of ignition test: 5 times
Ignition discharge energy: 10 J
(§6) Blown-up type dust explosion test apparatus (Environmental Technology Co., Ltd. DES -10)

Data set [3] is described as follows: Chargeability (static potential of the powder after stirring). Format: physicochemical. As to conditions: about 1 g stirred for 30 minutes with fluoroplastic-coated stirring bar. On the procedure: About 1 g of respective compounds is weighed into a weighing bottle (diameter of 35 mm). A stifling bar [fluoroplastic (tetrafluoroethylene resin) coating; 20 mm] is placed in the bottle and after the lid is in place, the powders are stirred for 30 minutes. The lid is opened at the same time that stirring is stopped; and the static potential of the powder is measured using a static potential measuring instrument.
STATIRON-DZ3 manufactured by Shishido Electrostatic, Ltd.

A short description of data set [4]: Minimum ignition energy (blown-up type dust explosion test). Format: physicochemical. As to conditions: 24° C., humidity 49%, dust concentration 1250 g/m^3.
Text: as §1, §2
(3) Measurement Conditions for Minimum Ignition Energy
as §3, §4, §5
Repetition of ignition test: 10 times
as §6

Data set [5] is described as follows: Influence of change in humidity on Hydrate crystal (powder X-ray diffraction). The data set is classed as physicochemical. As to conditions: 4 to 90 to 5% RH. On the procedure:
(§7) Influence of Change in Temperature and Humidity on Hydrate Crystal
(§8) Rigaku X-ray DTA system: RINT-2000 manufactured by Rigaku Corporation
(§9) Crystals obtained in Example 5 (Hydrate crystal) were ground in a mortar and then sampled on a 13-mm diameter glass plate. Measurement was carried out under the conditions below.
Measurement humidity was changed as follows in turn and powder X-ray diffraction patterns were measured at the respective humidities in sequence: […]

The nature of data set [6]: Influence of change in temperature on Hydrate crystal (powder X-ray diffraction). Format: physicochemical. To be noted: 30 to 100 to 30° C.; returns to Hydrate when the temperature was lowered. On the procedure:
as §7, §8, §9
Scanning range (2θ): 5 to 40°
Measurement temperature was changed as follows in turn and powder X-ray diffraction patterns were measured at the respective temperatures in sequence: 30→40→50→60→70→80→100→70→60→50→40 and 30° C.

For data set [7], the system named is AMPA (alpha -amino-3-hydroxy-5-methyl-4-isoxazolepropionic acid) receptor. To be noted: cited from earlier work.

Structures are written as SMILES.

For the compound `N#Cc1ccccc1-c1cc(-c2ccccn2)cn(-c2ccccc2)c1=O` [Example 6, 3-(2-cyanophenyl)-5-(2-pyridyl)-1-phenyl-1,2-dihydropyridin-2-one], the “change in crystal form during mixing operation (powder X-ray diffraction)” value (shortened to “change … (powder X-ray diffraction)”) in data set [1] is recorded as “no change in crystal form”.
In the case of `N#Cc1ccccc1-c1cc(-c2ccccn2)cn(-c2ccccc2)c1=O.O` [Example 5, 3-(2-cyanophenyl)-5-(2-pyridyl)-1-phenyl-1,2-dihydropyridin-2-one hydrate], in data set [2], the “Lower Explosion Concentration Limit” value is 160-170 g/m^3. For the same compound, the “static potential of the powder (chargeability)” value in data set [3] was 0 V. For the same compound, the “Minimum Ignition Energy” value in data set [4] fell in the range of 50 to 100 mJ. The “change … (powder X-ray diffraction)” value in data set [1] is “no change in crystal form”. In addition, the “humidity under which crystals stay Hydrate crystal” value in data set [5] is given as not below 10 % RH. Moreover, the “humidity under which Hydrate crystal changes to Anhydrous crystal form III” value in data set [5] (reversible) is recorded as not above 10 % RH. The “temperature at which Hydrate crystal transforms to Anhydrous crystal form III” value in data set [6] is not below 60 °C.
`N#Cc1ccccc1-c1cc(-c2ccccn2)cn(-c2ccccc2)c1=O` [Reference Example 1, 3-(2-cyanophenyl)-5-(2-pyridyl)-1-phenyl-1,2-dihydropyridin-2-one, reference compound]: the “static potential of the powder (chargeability)” value in data set [3] is recorded as 70-100 V. Besides, the “change … (powder X-ray diffraction)” value in data set [1] was “underwent a change in crystal form”.
With `N#Cc1ccccc1-c1cc(-c2ccccn2)cn(-c2ccccc2)c1=O` [Compound (A), 3-(2-cyanophenyl)-5-(2-pyridyl)-1-phenyl-1,2-dihydropyridin-2-one], in data set [7], the “antagonistic action against AMPA receptor” value is “significant antagonistic action”.
As for `N#Cc1ccccc1-c1cc(-c2ccccn2)cn(-c2ccccc2)c1=O` [Example 7, 3-(2-cyanophenyl)-5-(2-pyridyl)-1-phenyl-1,2-dihydropyridin-2-one], the “change … (powder X-ray diffraction)” value in data set [1] is “no change in crystal form”.
